One data set concerns microglial BV2 cells. In words: LDH release cell viability assay. The format is cell-based, murine. Particulars: 0.5nM to 50 μM, 24h. The method, then:
(§1) BV2 cells were harvested and counted before stimulation. The cells were untreated (control), vehicle-treated (DMSO), or treated with increasing concentrations (0.5nM, 5nM, 50nM, 0.5 μM, 5μM and 50 μM) of LDDN-0003499, LDDN-0075935, LDDN-0125694 or LDDN-0127164 for 24h to assess toxicity and 1 hour to assess effects on basal kinase activity. For secretion analyses, cells were pretreated with drugs for 1 hour prior to stimulation with 50nM Aβ (overnight) or 25ng/mL LPS (overnight) in the presence of the drugs in serum free DMEM/F12. Media were collected for ELISA analysis and for LDH release viability assays. For signaling analyses, cells were pretreated with drugs for 1 hour prior to 5 minute stimulation with 1μM Aβ 1–42. […] Protein concentrations were determined using the Bradford method.
For the lactate dehydrogenase release (LDH) assay, media following the 24 hour cell stimulations were transferred onto a new 96-well plate and LDH concentrations assayed according to manufacturer instructions (Promega Corporation, Madison, WI). Background absorbance was subtracted from each condition. All absorbance values for the LDH assay were averaged and plotted ±SD.

The subject of data set [1] is total protein phosphotyrosine levels in BV2 cells. In words: Total protein phosphotyrosine western blot (4G10), basal. Particulars: 0.5nM to 50 μM, 1h, vs vehicle. The format is cell-based, murine. The method, then: as §1
(§2) Cell lysates were resolved by SDS-PAGE on 10% polyacrylamide gels and transferred to PVDF membranes. […] Blots were washed followed by incubation with HRP-conjugated secondary antibodies and antibody binding was detected via enhanced chemiluminescence (GE Healthcare, Piscataway, NJ). Western blots were quantified using Adobe Photoshop software. […]

The target of data set [2] is T1, Lyn (Mus musculus, UniProt P25911).
T1 construct: endogenous in cells; host or cells: BV2 murine microglial cell line
In words: Basal pLyn (Tyr 396) western blot in BV2 cells. The class given is cell-based, murine. Particulars: 0.5nM to 50 μM, 1h. The protocol:
as §1, §2

Data set [3] addresses T2, Src (Mus musculus, UniProt P05480).
T2 construct: endogenous in cells; host or cells: BV2 murine microglial cell line
Description: Basal pSrc (Tyr 416) western blot in BV2 cells. The class given is cell-based, murine. Particulars: 0.5nM to 50 μM, 1h. The protocol: as §1, §2

Data set [4] concerns ERK. In words: Basal pERK western blot in BV2 cells. The class given is cell-based, murine. Particulars: 0.5nM to 50 μM, 1h. The protocol:
as §1, §2

The next data set deals with JNK. Description: Basal pJNK western blot in BV2 cells. The format is cell-based, murine. Particulars: 0.5nM to 50 μM, 1h. The method, then:
as §1, §2

The next data set has as its system p38. Description: Basal p-p38 western blot in BV2 cells. The format is cell-based, murine. Particulars: 0.5nM to 50 μM, 1h. The method, then:
as §1, §2

Data set [5] addresses T1, Lyn. Description: Aβ-stimulated pLyn western blot in BV2 cells. The format is cell-based, murine. The method, then:
(§3) BV2 cells were harvested and counted before stimulation. The cells were untreated (control), vehicle-treated (DMSO), or treated with increasing concentrations (0.5nM, 5nM, 50nM, 0.5 μM, 5μM and 50 μM) of […]-0125694 or LDDN-0127164 for 24h to assess toxicity and 1 hour to assess effects on basal kinase activity. […] Media were collected for ELISA analysis and for LDH release viability assays. For signaling analyses, cells were pretreated with drugs for 1 hour prior to 5 minute stimulation with 1μM Aβ 1-42. […] Protein concentrations were determined using the Bradford method. Cell lysates were resolved by SDS-PAGE on 10% polyacrylamide gels and transferred to PVDF membranes. Western blots were blocked with 3% bovine serum albumin and incubated in anti-phospho-[…][…]), anti-pSrc ([…]), anti-pERK, anti-pLyn ([…]), anti-pJNK, and anti-phospho-p38 primary antibodies with anti-α-tubulin, Src, ERK2, Lyn, JNK, and p38 antibodies used as the respective loading controls. Blots were washed followed by incubation with HRP-conjugated secondary antibodies and antibody binding was detected via enhanced chemiluminescence (GE Healthcare, Piscataway, NJ). Western blots were quantified using Adobe Photoshop software. Optical densities of bands were normalized using their appropriate loading controls and averaged (±) SD.

Data set [6] concerns the target T2, Src. Description: Aβ-stimulated pSrc western blot in BV2 cells. The format is cell-based, murine. Particulars: 1h pretreatment, 1 μM Aβ 1-42 for 5 minutes. The method, then:
as §3

Data set [7] deals with ERK. In words: Aβ-stimulated pERK western blot in BV2 cells. The format is cell-based, murine. Particulars: 1h pretreatment, 1 μM Aβ. The method, then: as §3
The subject of data set [8] is TNF-α secretion. In words: Aβ-stimulated TNF-α secretion ELISA in BV2 cells. The format is cell-based, murine. Particulars: 1h pretreatment, 50nM Aβ 1-42, 24h. The protocol:
as §1
(§4) Media were collected from BV2 cells following 24 hour stimulations for ELISA analyses. Levels of mouse TNF-α, IL-6, and IL-1β in the media were determined using commercially available ELISA kits according to the manufacturer’s protocol (R&D Systems).

The subject of the next data set is IL-6 secretion. In words: Aβ-stimulated IL-6 secretion ELISA in BV2 cells. Particulars: 1h pretreatment, 50nM Aβ 1-42, 24h. The format is cell-based, murine. The protocol:
as §1, §4

Data set [9] has as its system TNF-α secretion. In words: LPS-stimulated TNF-α secretion ELISA in BV2 cells. The class given is cell-based, murine. Particulars: 1h pretreatment, 25ng/ml LPS, 24h. The method, then: as §1, §4
Data set [10] can be described thus: Microsomal stability / intrinsic clearance assay, human. The class given is in vitro ADME. Particulars: liver microsomes. The method, then: (§5) Briefly, the compound was incubated with human or mouse microsomes in the presence or absence of NADPH. […] Data were converted to percent remaining by dividing by the time zero concentration value. In vitro half-life was determined based on the slope of the (first-order) decay curve and this value was converted to intrinsic clearance (CLint). […] Briefly, Caco-2 cells were plated in Millipore 96-well transwell plates and allowed to differentiate for 21 days to form polarized, epithelial monolayers. For apical to basolateral (A→B) permeability, the compound was added to the apical (A) side and amount permeation determined on the basolateral (B) side. For B→A permeability, the compound was added on the basolateral (B) side. Upon completion of the incubation (2 hr), the receiver side buffer was removed for analysis by LC-MS/MS. From the samples, apparent permeability rate coefficients (Papp values) and efflux ratios were determined for the compound.

Data set [11] is described as follows: Microsomal stability / intrinsic clearance assay, mouse. The class given is in vitro ADME. Particulars: liver microsomes. The method, then:
as §5

Data set [12] can be described thus: Caco-2 bidirectional permeability assay. The class given is in vitro ADME. Particulars: human. The protocol:
as §5

In another data set the test system is Caco-2 cells. In words: Caco-2 bidirectional permeability assay. The class given is in vitro ADME. Particulars: Caco-2, 10 μM, 2 hr. The protocol:
as §5

The mark [13] stands for this setting: read-out: NADPH-Dependent CLint.

These results are taken from article PMC4498792, “Characterization of Novel Src Family Kinase Inhibitors to Attenuate Microgliosis” (PLoS ONE, 2015).

The structures appear in SMILES notation. Read-outs that look alike come from different tables or passages of the source.

T2 sequence (P05480 whole entry): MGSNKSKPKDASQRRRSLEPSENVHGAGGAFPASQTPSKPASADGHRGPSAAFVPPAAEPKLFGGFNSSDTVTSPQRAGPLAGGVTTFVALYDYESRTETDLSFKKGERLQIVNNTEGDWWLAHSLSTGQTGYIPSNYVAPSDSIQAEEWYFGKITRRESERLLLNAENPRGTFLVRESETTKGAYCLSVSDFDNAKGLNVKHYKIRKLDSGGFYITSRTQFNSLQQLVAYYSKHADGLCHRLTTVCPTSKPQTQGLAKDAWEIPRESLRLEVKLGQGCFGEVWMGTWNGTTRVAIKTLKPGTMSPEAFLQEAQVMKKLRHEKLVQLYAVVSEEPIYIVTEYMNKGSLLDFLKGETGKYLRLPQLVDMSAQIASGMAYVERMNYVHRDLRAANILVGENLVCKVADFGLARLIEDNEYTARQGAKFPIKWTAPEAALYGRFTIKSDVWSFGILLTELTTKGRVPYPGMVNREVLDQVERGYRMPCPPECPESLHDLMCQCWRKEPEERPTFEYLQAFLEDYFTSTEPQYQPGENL
T1 sequence (P25911 whole entry): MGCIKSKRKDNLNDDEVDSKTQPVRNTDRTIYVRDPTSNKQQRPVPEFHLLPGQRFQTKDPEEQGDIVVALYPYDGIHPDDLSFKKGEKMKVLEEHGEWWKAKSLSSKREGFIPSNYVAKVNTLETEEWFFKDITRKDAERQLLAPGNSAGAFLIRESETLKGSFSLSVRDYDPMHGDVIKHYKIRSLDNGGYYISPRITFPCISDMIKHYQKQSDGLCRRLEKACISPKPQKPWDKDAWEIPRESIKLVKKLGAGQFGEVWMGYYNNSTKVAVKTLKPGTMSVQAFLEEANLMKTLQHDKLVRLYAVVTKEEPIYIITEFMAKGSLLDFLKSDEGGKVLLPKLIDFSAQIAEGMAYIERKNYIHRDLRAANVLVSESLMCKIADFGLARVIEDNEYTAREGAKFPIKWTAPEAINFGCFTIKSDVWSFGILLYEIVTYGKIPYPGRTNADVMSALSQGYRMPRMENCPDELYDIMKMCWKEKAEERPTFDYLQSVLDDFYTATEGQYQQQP

With `COc1cc2ncnc(Nc3ccc(Cl)cc3Cl)c2cc1OC` [LDDN-0003499], the “toxicity to microglial BV2 cells (LDH release, cell viability)” value with microglial BV2 cells was “not toxic”. Moreover, the “total protein phosphotyrosine levels” value in data set [1] is “significantly decrease the total protein phosphotyrosine levels in a dose-dependent manner”. At Lyn [2], the “active, phosphorylated Lyn (pLyn) protein levels” value is reported as “dose-dependent decrease”. Also, the “active, phosphorylated Src (pSrc) protein levels” value on Src [3] is “dose-dependent decrease”. Moreover, the “phosphorylated ERK (pERK) protein levels” value in the data set with ERK [4] is on record as “no ability to alter”. For the same molecule, the “phosphorylated JNK (pJNK) protein levels” value with JNK is “no ability to alter”. In addition, the “phosphorylated p38 (p-p38) protein levels” value in the data set with p38 is on record as “no ability to alter”. Further, the “selectivity for Lyn versus Src in the Aβ stimulation paradigm” value at Lyn [5] (50nM (pLyn) vs 500nM (pSrc)) is listed as “tenfold”. In addition, the “concentration sufficient to significantly attenuate the Aβ stimulated increase in pLyn levels” value at Lyn [5] (1h pretreatment, 1 μM Aβ 1-42 for 5 minutes) is 50 nM. In addition, the “concentration required to attenuate the Aβ stimulated increase in pSrc” value on Src [6] stood at 500 nM. In addition, the “pERK levels following Aβ stimulation” value with ERK [7] is “no inhibition”. Also, the “Aβ stimulated TNF-α secretion” value in the data set on TNF-α secretion [8] is on record as “dose-dependently inhibited”. Besides, in the data set on TNF-α secretion [8], the “concentration at which inhibition of Aβ stimulated TNF-α secretion begins” value is listed as 500 nM. The “Aβ stimulated IL-6 secretion” value in the data set on IL-6 secretion is reported as “dose-dependently inhibited”. Also, the “LPS stimulated TNF-α secretion” value in the data set with TNF-α secretion [9] is listed as “attenuated”. The half-life at 1 μM turned out to be 14.1 min in [10] (read-out: NADPH-Depend. T1/2), 65 min in data set [10] (read-out: NADPH-Free T1/2), 16.6 min in [11] (read-out: NADPH-Depend. T1/2) and 88 min in data set [11] (read-out: NADPH-Free T1/2). Also, the microsomal CLint at 1 μM in data set [10] (setting [13]) came to 98.4 µL/min/mg; in data set [10] (read-out: NADPH-Free CLint), 21.2 µL/min/mg; in [11] (setting [13]) it was 83.3 µL/min/mg; in data set [11] (read-out: NADPH-Free CLint) it was 15.8 µL/min/mg. Also, the efflux ratio at 2 hr, 10 μM in data set [12] (Caco-2, 10 μM, 2 hr, read-out: Efflux Ratio Papp(B→A) / Papp(A→B)) was 0.85. Moreover, the Papp A→B at 2 hr, 10 μM in data set [12] (Caco-2, 10 μM, 2 hr, read-out: mean A→B Papp) worked out at 19 ×10⁻⁶ cm/s. Besides, the Papp B→A at 2 hr, 10 μM in data set [12] (Caco-2, 10 μM, 2 hr, read-out: mean B→A Papp) was 16.2 ×10⁻⁶ cm/s. In addition, the “Caco-2 permeability, comment” value in the data set on Caco-2 cells was “high permeability”.

`O=C(Nc1cc(Cl)ccc1Cl)c1noc2c1CCC2` [LDDN-0075935]: the “toxicity to microglial BV2 cells (LDH release, cell viability)” value in the data set on microglial BV2 cells is recorded as “not toxic”. The “total protein phosphotyrosine levels” value in data set [1] is “no effect”. The “active, phosphorylated Lyn (pLyn) protein levels” value on Lyn [2] is “not able to attenuate”. Moreover, at Src [3], the “active, phosphorylated Src (pSrc) protein levels” value is on record as “not able to attenuate”. Further, the “phosphorylated ERK (pERK) protein levels” value in the data set on ERK [4] was “stimulated increased pERK protein levels at the highest drug concentration”. Also, the “phosphorylated JNK (pJNK) protein levels” value with JNK is “did not attenuate”. In the data set on p38, the “phosphorylated p38 (p-p38) protein levels” value is listed as “did not attenuate”.

As to `CC(=O)CC(c1ccccc1)c1c(O)c2ccccc2oc1=O` (stereo not drawn) [warfarin, reference compound], in data set [12] (Caco-2), the apical-to-basolateral permeability (Papp A→B) at 2 hr, 10 μM was 27.1 ×10⁻⁶ cm/s and the apparent permeability from basolateral to apical (Papp B→A) at 2 hr, 10 μM is 10.4 ×10⁻⁶ cm/s.
